Measured values taken from patent publication EP2876156A1 (COMMISSARIAT A L'ENERGIE ATOMIQUE ET AUX ENERGIES …, priority 2013, dated 2015).

Target: T1, ENZ3 SEQ ID NO:3 (Chitinophaga pinensis, UniProt C7PLM6)
T1 construct: His6 (hexahistidine, inserted after the initial methionine) (N); made in house; host or cells: E. coli BL21(DE3) plysE
T1 sequence (C7PLM6 1-382): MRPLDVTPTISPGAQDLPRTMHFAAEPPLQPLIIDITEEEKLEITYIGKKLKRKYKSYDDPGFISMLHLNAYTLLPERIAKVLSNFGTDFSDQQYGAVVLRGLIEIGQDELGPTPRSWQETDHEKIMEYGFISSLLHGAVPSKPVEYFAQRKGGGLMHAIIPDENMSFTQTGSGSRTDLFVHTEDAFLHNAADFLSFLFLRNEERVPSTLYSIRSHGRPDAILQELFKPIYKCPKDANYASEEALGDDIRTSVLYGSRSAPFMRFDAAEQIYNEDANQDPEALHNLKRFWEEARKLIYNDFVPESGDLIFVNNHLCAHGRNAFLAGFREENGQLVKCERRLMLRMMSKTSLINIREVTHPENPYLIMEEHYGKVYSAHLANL
Assay: Enzymatic hydroxylation of L-lysine, 10 mL scale, conversion by HPLC (protocol A)
Type: biochemical
Conditions: printed 'with ENZ1'; protocol lists ENZ3 0.031 mg/mL; otherwise as ENZ1 protocol (L-lysine 10 mM, room temperature, 18h)
Method: Enzymatic reaction medium (0.2 µmole, leq.), borate buffer 0,2M pH 7.7 (80 µL) and Fmoc-Cl solution7.5 mM in acetone (100 µL, 0.75 µmole, 3.75 eq) were hand shaked in a closed 1.50 mL eppendorf for one minute. The aqueous layer was extracted with petroleum ether (3*1 mL) to eliminate excess of Fmoc-Cl. 70 µL of the aqueous phase were withdrawn, diluted with 70 µL of acetonitrile and injected into the HPLC. For substrates with two amine functions, 100 µL of Fmoc-Cl solution 15 mM were used.
Conditions for HPLC analysis: Atlantis® T3 (3 µm 4.5*150 mm) at 35°C with the gradient 50-86% eluent B (MeCN + 0.1% TFA) and eluent A (H2O + 0.1% TFA) in 20 min at 1 mL/min.
Enzymatic reaction was carried out in 250 mL glass erlenmeyer flask for a total volume of 4*10 mL. […] The conversion of L-lysine into 3-hydroxy-L-lysine (94%) was determined by HPLC after derivatization with Fmoc-Cl according to protocol A.
The protocol used was the same as that described above for the hydroxylation by ENZ1 except that the enzyme concentrations used were different (ENZ2: 0.086 mg/mL; ENZ3: 0.031 mg/mL). Conversions were determined by HPLC after derivatization with Fmoc-Cl according to protocol A as described above. […]

Compound: NCCCC[C@H](N)C(=O)O [L-lysine]
- conversion of L-lysine into (4R)-hydroxy-L-lysine: 96%
